Source: patent US20110008463A1, “COMBINATIONS OF HYDROXYPYRION COMPOUNDS AND SILVER COMPOUNDS” (priority 2008, published 2011)

Legend:
Chaetomium globosum = assay: Poison Plate Assay (fungi, Glucose Agar); type: cell-based; settings: Chaetomium globosum ATCC6205, ppm total active ingredient, 27° C., growth evaluated after two weeks, label = % (I-e) + % nano-silver
Description: (§1) Test models: • Fungi: to each well of a 24-well microtiter plate, 1000 μl of Glucose Agar (GA: 10 g glucose, 1.5 g K2HPO4, 2 g KH2PO4, 1 g (NH4)2SO4, 0.5 g MgSO4 and 12.5 g agar in 1 liter deionised water) containing the appropriate combination of the test compounds in one of the concentrations of a dose series is added. The nutrient medium is inoculated with the test fungi by adding a spore/mycelium suspension (10 μl) or a small piece of agar from the margin of an actively growing colony and incubated under dark at 27° C. with 70% relative humidity. The growth of the fungi is evaluated after two weeks. • Glucose agar is used here instead of PDA (Potato Dextrose Agar), as an alternative, poorer medium for the fungi, in order to increase the chances of detecting activity in compounds whose mode of action might be circumvented by fungi on a […]). Moreover, a richer organic medium has more potential to complex and inactivate antibacterial silver ions (Lasater et al. 1999, Weissbuch et al. 2002). • Bacteria : to each well of a 24-well microtiter plate, 1000 μL Tryptose Agar (TA, 20 g bacto tryptose agar, 5 g sodium chloride, 1 g bacto dextrose and 15 g agar in l liter deionised water), containing the test compounds in one of the concentrations of a dose series is added. […] Growth is evaluated after five days. […]

Ulocladium atrum = assay: Poison Plate Assay (fungi, Glucose Agar); type: cell-based; settings: Ulocladium atrum IMI214699a, ppm total active ingredient, 27° C., growth evaluated after two weeks, label = % (I-e) + % nano-silver
Description: as §1

For Cc1cc(CC(C)CC(C)(C)C)n(O)c(=O)c1.NCCO (centres unmarked) [100 + 0, piroctone olamine], the “MIC-values (minimum inhibitory concentration) in ppm” value (Chaetomium globosum) was 3.16 ppm and the “MIC-values (minimum inhibitory concentration) in ppm” value (Ulocladium atrum) was 3.16 ppm.
